Results taken from US8101760B2, “Glucocorticoid receptor modulator and methods of use” (Eli Lilly and Company, priority 2007, dated 2012).

Experiments:
[1] = Metabolic profiling of plasma after in vivo administration, monkey
serum osteocalcin = test: Serum osteocalcin assay; type: in vivo, mouse; conditions: mice, oral, seven days; 1 mg/kg/day Compound (I) vs 10 mg/kg/day prednisolone; mean of 6
Description: Bone loss/osteoporosis and the resulting increased risk of fracture is a common and significant adverse effect that results from glucocorticoid therapy. Glucocorticoid induced osteoporosis is believed to result, at least in part, from an inhibition of bone formation. The measurement of serum osteocalcin, a biological marker of bone synthesis, is a recognized tool for assessing the adverse effects of glucocorticoid therapy on bone. (see Pearce et al., J. Clin. Endocrino. Metab. 83: 801-806, (1998)).
To assess the effects of Compound (I) on bone formation, Compound (I) is formulated in a vehicle comprising 5% carboxymethyl cellulose and 0.25% Tween 80 and administered orally via gavage to sixteen week old male Swiss-Web mice (Harlan Industries, Indianapolis, Ind.) for seven days. For comparison, prednisolone is administered orally in the same vehicle. Serum is collected 24 hours after the last dose and osteocalcin levels are determined using a competitive radioimmunoassay (RIA) kit (Biomedical Technologies, Inc., Stoughton, Mass.) modified to a 96 well format. […] The filters are punched and the radioactivity quantitated on a gamma counter (Cobra II, Packard Instruments, Meriden, Conn.). Radioactivity detected on the filters from test samples is inversely proportional to serum osteocalcin concentration. […]

[2] = Bioavailability and plasma exposure after oral administration to test animals; type: in vivo
[3] = molecular target: T1, human mineralocorticoid receptor (MR) (Homo sapiens, UniProt P08235); test: Nuclear hormone receptor functional modulation assay (GRE-luciferase, HEK293), MR; type: cell-based
T1 construct: expressed in transfected cells; host or cells: HEK293, transient transfection (Fugene), CMV promoter plasmid
T1 sequence (P08235 1-984): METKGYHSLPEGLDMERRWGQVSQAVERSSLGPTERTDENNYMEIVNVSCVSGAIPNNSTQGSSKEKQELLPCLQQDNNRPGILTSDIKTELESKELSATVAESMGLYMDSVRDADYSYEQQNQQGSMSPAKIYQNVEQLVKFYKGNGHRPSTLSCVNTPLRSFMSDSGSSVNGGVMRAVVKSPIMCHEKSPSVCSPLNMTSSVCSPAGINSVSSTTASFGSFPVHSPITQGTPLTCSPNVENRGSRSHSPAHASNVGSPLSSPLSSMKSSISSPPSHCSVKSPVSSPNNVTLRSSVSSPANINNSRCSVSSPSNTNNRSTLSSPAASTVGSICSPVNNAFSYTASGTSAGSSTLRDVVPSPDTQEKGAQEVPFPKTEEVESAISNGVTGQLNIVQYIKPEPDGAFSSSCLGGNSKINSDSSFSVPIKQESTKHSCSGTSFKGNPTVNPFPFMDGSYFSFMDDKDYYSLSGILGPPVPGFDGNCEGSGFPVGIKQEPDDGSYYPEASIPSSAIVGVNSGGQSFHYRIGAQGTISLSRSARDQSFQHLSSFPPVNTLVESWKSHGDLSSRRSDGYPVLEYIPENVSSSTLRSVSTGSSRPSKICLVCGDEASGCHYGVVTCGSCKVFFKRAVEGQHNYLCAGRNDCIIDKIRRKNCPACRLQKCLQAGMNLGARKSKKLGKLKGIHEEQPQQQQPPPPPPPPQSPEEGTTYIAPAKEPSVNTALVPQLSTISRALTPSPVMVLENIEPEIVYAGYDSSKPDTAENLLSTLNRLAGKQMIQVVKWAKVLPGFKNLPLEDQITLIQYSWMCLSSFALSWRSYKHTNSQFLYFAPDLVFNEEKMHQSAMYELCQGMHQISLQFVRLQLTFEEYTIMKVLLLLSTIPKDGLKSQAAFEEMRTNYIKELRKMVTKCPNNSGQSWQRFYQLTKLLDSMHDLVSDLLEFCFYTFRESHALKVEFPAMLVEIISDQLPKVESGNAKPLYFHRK
Description: The solvents, reagents, and ligands employed in the functional assay are readily available from commercial sources, or can be prepared by one of ordinary skill in the art.
Human embryonic kidney HEK293 cells are transfected with steroid hormone receptor and reporter gene plasmids using Fugene™ (Roche Diganostics) transfection reagent. Briefly, the reporter plasmid containing two copies of probasin ARE (androgen response element 5′GGTTCTTGGAGTACT3′ (SEQ ID NO:1)) and TK(thymidine kinase) promoter upstream of the luciferase reporter cDNA, is transfected into HEK293 cells with a plasmid constitutively expressing human androgen receptor (AR) using viral CMV(cytomegalovirus) promoter. The reporter plasmid containing two copies of GRE (glucocorticoid response element 5′TGTACAGGATGTTCT′3 (SEQ ID NO:2)) and TK promoter upstream of the luciferase reporter cDNA is transfected with a plasmid constitutively expressing either human glucocorticoid receptor (GR), human mineralocorticoid receptor (MR), or human progesterone receptor (PR) using viral CMV promoter. Cells are transfected in T150 cm flasks in DMEM media with 5% charcoal-stripped Fetal Bovine Serum (FBS). […] In the antagonist mode for the assays, low concentrations of agonist for each respective receptor are added to the media (0.25 nM dexamethasone for GR, 0.3 nM of methyltrienolone for AR, 0.05 nM of promegestone for PR and 0.05 nM aldosterone for MR), and the ability of test compound to antagonize the agonist response is determined. After 24 hours of incubation with test compounds, cells are lysed and luciferase activity is determined using standard techniques.
Data are fitted to a four parameter-fit logistic curve fit to determine EC50 values. […] IC50 values may be determined similarly using antagonist mode assay data. Percent inhibitions may also be determined relative to the response in the presence of agonist alone, as described above.

[4] = Metabolic profiling of plasma after in vivo administration, dog

CC/C(=C1\c2ccc(Cl)cc2OCc2ncccc21)c1cccc(NS(C)(=O)=O)c1 [Compound (I), (E)-N-{3-[1-(8-Chloro-11H-10-oxa-1-aza-dibenzo[a,d]cyclohepten-5-ylidene)-propyl]-phenyl}-methanesulfonamide]
metabolites in plasma [1]: no metabolites detected
circulating entity in plasma ([1]; after in vivo administration): major circulating entity
reduction in serum osteocalcin levels compared with prednisolone (serum osteocalcin): less reduction
bioavailability [2]: good
plasma exposure [2]: good
EC50 ([3]; agonist mode, activating transcription): > 10 µM
modulation of gene expression mediated by MR ([3]; functional modulation, in words): only limited activity
MR % Eff. ([3]; percent efficacy at 10 μM relative to 30 nM aldosterone, mean of 3): 8.5%
circulating entity in plasma [4]: major circulating entity
